Laboratory results from patent publication US20090215889A1, “Novel Use of Zinc Gluconate for Treating Hydradenitis Suppurativa” (LABCATAL, priority 2005, published 2009).
Values joined by “and” are separate entries in the source; they are usually repeats but may differ in a detail not shown here. Identical values can stand only once.

Legend:
[1] = test system: suppurative hidradenitis; conditions: oral; open study on 80 patients; cited from earlier work
[2] = tolerance to oral zinc gluconate doses; format: in vivo, human; conditions: for example 90 mg/day
[3] = test system: suppurative hidradenitis; experiment: clinical observation of oral zinc gluconate in 20 patients with suppurative hidradenitis; format: in vivo, human; design: key to Rep (response of the individual patient): CR: complete remission; PR: partial remission
Description: The efficacy of zinc gluconate in the treatment of suppurative hidradenitis was verified by the clinical observation performed on 20 patients, 16 of whom were monitored for a period of up to 24 months.
20 patients, 14 women and 6 men, from 23 to 72 years old, whose history of the disease ranged from 6 to 13 years, were placed on 90 mg of zinc gluconate per day for a period of a few months to 3 years.
In 34% of the cases, the location of the lesions was inguinal, axillary in 24% of the cases, and on the buttocks in 17% of the cases. The other affected regions in 5% to 7% of the cases were the chest, the pubis or the perineum.
“Dose 1” is the dose administered at the start of the treatment. “Dose 2” is the maintenance dose. The medical monitoring was generally from 4 to 8 months, and in a few cases it was extended beyond 12 months.

[4] = Vidal monograph, overdose section; cited from earlier work
[5] = test system: suppurative hidradenitis; conditions: cited from earlier work
[6] = of 20 patients, 90 mg zinc gluconate per day, monitoring for several months

In the case of CC1=C(/C=C/C(C)=C/C=C/C(C)=C\C(=O)O)C(C)(C)CCC1 [isotretinoin], the results of treatment [1] is given as “very mediocre results”.

With zinc gluconate the observed side effects [2] was “only digestive”, the systemic toxicity [2] was “no systemic toxicity to be feared” and the tolerance ([2]; i.e. 6 gel capsules containing a 15 mg dose) was “usually good”. The “patients for whom the treatment proved to be ineffective” value ([3]; of 20 patients, 90 mg zinc gluconate per day) was “one”, the “patients showing a full remission of the disease” value [3, 6] was 9 patients and the “patients showing a full remission of the disease (percentage)” value [3, 6] was 45%. The “patients showing a partial remission” value [3, 6] was 6 patients, the “patients showing a partial remission (percentage)” value [3, 6] was 30% and the “efficacy in the treatment of suppurative hidradenitis” value ([3]; oral, 60 to 120 mg per day attack treatment, 15 to 90 mg per day maintenance treatment) was “satisfactory efficacy”. The “Rep (response of the individual patient)” value ([3]; patient (No. 1-20), oral, Dose 1 60-120 mg/day at start, Dose 2 maintenance, monitoring 3 to >12 months) was “PR (6×) and CR (9×) and ineff” and the “probability of an acute intoxication” value [4] was “zero”.

In the case of CC(=O)O[C@]1(C(C)=O)CC[C@H]2[C@@H]3C=C(Cl)C4=CC(=O)[C@@H]5C[C@@H]5[C@]4(C)[C@H]3CC[C@@]21C [cyproterone acetate], the efficacy ([5]; 100 mg/day of cyproterone acetate, small number of patients) is listed as “efficacy only at large doses” and the “outcome on dose reduction” value ([5]; dose reduced to 50 mg) is listed as “recurrence”.
